According to patent US11236120B2, “Azithromycin derivatives with epithelial barrier enhancement properties” (EpiEndo Pharmaceuticals ehf, priority 2015, dated 2022):
≈ marks a conversion by molar mass, not a printed value. Entries after “also recorded” stand apart in the source; their conditions may differ.

Tests used:
[1] = system: Mycobacterium avium complex (MAC); assay: Assay 2: STC colorimetric microplate assay, comparison over the Mycobacteria studied; type: cell-based; details: all four strains of M. avium and M. intracellulare
[2] = system: epithelial cells in vitro ALI culture; details: cited from earlier work
[3] = Stability in human plasma; type: in vitro ADME; details: room temperature
Procedure: Stability in Mouse and Human Plasma
The stability of the compounds in mouse and human plasma was performed using protein precipitation as sample clean-up and HPLC-MS detection. The plasma stability studies of the compounds was performed at room temperature for up to 4 hours. A stock solution of […] in DMSO was prepared for each compound. For the plasma stability samples, 100 μL of the stock solution was diluted with 3.9 mL of either mouse or human plasma to a final concentration of […]. The plasma was left to equilibrate for 10 minutes at room temperature before the first analysis. For each analyzed time point ([…]) a 100 μL aliquot of the plasma was removed and protein precipitation (PPT) was performed on the aliquot by adding 900 μL of (ACN:DMSO) 95:5. The precipitated sample was shaken for 60 seconds and then centrifuged. The supernatant was transferred to an HPLC vial and analyzed using HPLC-MS. The chromatographic signal area of the samples at the different time points were then compared against each other, by setting the initial analysis at t=0 min as 100% and then calculating the %-value for each subsequent time point.
(§1) The chromatographic separation was performed on a Waters HPLC-MS system using a 50×2.1 mm×Bridge C18 column and a gradient elution of Water with 0.1% formic acid and acetonitrile with 0.1% formic acid. The analytes were analyzed in positive electro-spray mode using the (M+H)^+ in single ion recording.

[4] = Solubility in 10 mM phosphate buffer (pH 7.4); type: physicochemical; details: pH 7.4, aqueous buffer, kinetic from dmso stock, 60 minutes at room temperature, filtered, read-out: MTS Solubility in Buffer (pH 7.4)
Procedure: Solubility in 10 mM Phosphate Buffer (pH 7.4)
The solubility sample testing of the compounds was performed by in phosphate buffer at pH 7.4 and using HPLC-MS detection. A stock solution of […] in DMSO was prepared for each compound. For the solubility test sample, 100 μL of the stock solution was diluted with 3.9 mL of a 10 mM phosphate buffer at […] to a final concentration of […]. The buffer solution was left to stand for 60 minutes at room temperature and then filtered. The filtrate was analyzed against two calibration points of the same analyte prepared at […] using HPLC-MS. These calibration points were prepared from the same stock solution as the solubility sample by diluting it with DMSO:H2O (1:1) 1:40 and then again 1:10. The chromatographic signal area of the analyte in the solubility sample was then compared to the chromatographic signal area of the two calibration samples.
as §1

[5] = system: barrier integrity in the lungs of mice under sulphur dioxide insult; assay: Barrier integrity enhancement in the lung: HSA leakage into BAL after sulphur dioxide insult; type: in vivo
Procedure: The effect of compounds of the invention on maintenance of barrier integrity in the lungs of mice under sulphur dioxide insult was investigated.
1. 15 female mice were randomised into 3 groups of 5 mice. The three groups were: • a) Control group • b) Azithromycin treatment group • c) Investigational compound treatment group
2. The mice were pre-treated for three days with: • a) Placebo (Phosphate buffered saline—PBS) given at a dose of 10 mg/kg in an intravenous injection of 100 μl three times per week. • b) Azithromycin: given at a dose of 10 mg/kg in an intravenous injection of 100 μl three times per week. • c) The compound of Example 2: given at a dose of 10 mg/kg in an intravenous injection of 100 μl three times per week.
3. One mouse in each group was set to one side as a control. Four mice were then exposed to sulphur dioxide gas at a concentration of 200 ppm in air for a period of 60 minutes. The mice were in a cage that was inserted into a 45 L treatment box with a removable lid, a gas feed line and a gas exhaust vent. […] The gas was premixed from bottled air and bottled 200 ppm SO2 in a first box and then fed into the treatment box. The level of SO2 being fed into the treatment box can be varied by adjusting the relative flow of air and SO2 from the two source cylinders. As the sulphur dioxide concentration in this experiment was 200 ppm, it was used neat, with no additional air being mixed with it. The mice had access to food and water for the duration of the treatment.
4. 24 hours after the end of the treatment, 1 mg of human serum albumin (HSA) in 100 μl saline was injected into the tail vein of each mouse, and fluorescent dextrans (FDs) were injected into the airways. The mice were then kept sedated for 90 minutes.
5. After 90 minutes, the mice were sacrificed via exsanguination. Plasma and bronchoalveolar lavage (BAL) were collected and the lungs were processed for paraffin embedding.
6. The level of HSA in the BAL was quantified by ELISA. The ELISA test used was the one commercially available from abcam (Human Serum Albumin kit ab179887). In line with the kit manufacturer's instructions, absorbance at […] was measured. Fluorescent dextrans are quantified using a fluorescent plate reader.
The level of HSA that leaks into the lungs, as found in the BAL, is a measure of the integrity of the lung epithelial barrier.
In the placebo group, there were experimental difficulties with two of the four mice; in the Azithromycin group, there were experimental difficulties with one of the four mice; and in the investigational compound group, there were experimental difficulties with two of the four mice. Therefore, results were obtained from two mice in each of the placebo and investigational compound groups, and from three mice in the Azithromycin group.

CC[C@H]1OC(=O)[C@H](C)[C@@H](O[C@H]2C[C@@](C)(OC)[C@@H](O)[C@H](C)O2)[C@H](C)[C@@H](O[C@@H]2O[C@H](C)C[C@H](N(C)C)[C@H]2O)[C@](C)(OC)C[C@@H](C)C(=O)[C@H](C)[C@@H](O)[C@]1(C)O [Clarithromycin]
sensitivity of the MAC strains used [1]: sensitive

CC[C@H]1OC(=O)[C@H](C)[C@@H](O[C@H]2C[C@@](C)(OC)[C@@H](O)[C@H](C)O2)[C@H](C)[C@@H](O[C@@H]2O[C@H](C)C[C@H](N(C)C)[C@H]2O)[C@](C)(O)C[C@@H](C)C(=O)[C@H](C)[C@@H](O)[C@]1(C)O [Erythromycin]
effect on transepithelial resistance (TER) and cellular processing of tight junctions [2]: not to exhibit similar effects

CC[C@H]1OC(=O)[C@H](C)[C@@H](O)[C@H](C)[C@@H](O[C@@H]2O[C@H](C)C[C@H](N(C)C)[C@H]2OC(=O)c2ccccc2)[C@](C)(O)C[C@@H](C)CN(C)[C@H](C)[C@@H](O)[C@]1(C)O [Example 2]
Degradation in Human Plasma at RT [3]: Stable | solubility at 60 min [4]: 3.62 µM (≈ 2.52 µg/mL) | HSA level - absorbance at 600 nm ([5]; HSA in BAL by ELISA, mice, 10 mg/kg intravenous, 200 ppm SO2 for 60 minutes): 0.373 ± 0.037 | leakage of HSA into the lung following SO2 insult ([5]; compared with control, FIG. 1): reduced compared with the control; also recorded: reduced compared with a control | HSA level - absorbance at 600 nm relative to control ([5]; relative to PBS control, mice, 10 mg/kg intravenous, 200 ppm SO2 for 60 minutes): 0.640 ± 0.058

penicillin
effect on transepithelial resistance (TER) and cellular processing of tight junctions [2]: not to exhibit similar effects
